According to ChEMBL document CHEMBL3769352, “Design, synthesis, and testing of an isoquinoline-3-carboxylic-based novel anti-tumor lead” (Bioorg Med Chem Lett, 2015):

Columns and labels:
Mus musculus [1] = test: Toxicity in Swiss mouse allografted with mouse S180 cells assessed as body weight at 2 umol/kg, sc administered every day for 12 days measured every day during compound administration; format: organism-based, CCRF S-180; settings: in vivo, 288 h
CCRF S-180 [2] = test: Antitumor activity against mouse S180 cells allografted in Swiss mouse assessed as tumour weight at 8 umol/kg, sc administered every day for 12 days measured on fourteenth day (reference value: 1.662 +/- 0.355 g); format: functional
[3] = Cytotoxicity against human Bel7402 cells after 48 hrs by MTT assay; format: functional, cell-based; settings: Bel-7402, 48 h
Mus musculus [4] = test: Toxicity in Swiss mouse allografted with mouse S180 cells assessed as effect on spleen to body weight ratio at 2 umol/kg, sc administered every day for 12 days measured on fourteenth day; format: organism-based, CCRF S-180; settings: in vivo, 288 h
Mus musculus [5] = test: Toxicity in Swiss mouse allografted with mouse S180 cells assessed as effect on brain to body weight ratio at 2 umol/kg, sc administered every day for 12 days measured on fourteenth day; format: organism-based, CCRF S-180; settings: in vivo, 288 h
Mus musculus [6] = test: Toxicity in Swiss mouse allografted with mouse S180 cells assessed as effect on kidney to body weight ratio at 2 umol/kg, sc administered every day for 12 days measured on fourteenth day; format: organism-based, CCRF S-180; settings: in vivo, 288 h
HepG2 = test: Cytotoxicity against human HepG2 cells after 48 hrs by MTT assay; format: functional, cell-based; settings: HepG2, 48 h
KB = test: Cytotoxicity against human KB cells after 48 hrs by MTT assay; format: functional, cell-based
Mus musculus [7] = test: Toxicity in Swiss mouse allografted with mouse S180 cells assessed as effect on liver to body weight ratio at 2 umol/kg, sc administered every day for 12 days measured on fourteenth day; format: organism-based, CCRF S-180; settings: in vivo, 288 h
MCF7 = test: Cytotoxicity against human MCF7 cells after 48 hrs by MTT assay; format: functional, cell-based; settings: MCF7, 48 h
Mus musculus [8] = test: Toxicity in Swiss mouse allografted with mouse S180 cells assessed as spleen weight index at 2 umol/kg, sc administered every day for 12 days measured on fourteenth day; format: organism-based, CCRF S-180; settings: in vivo, 288 h
Mus musculus [9] = test: Toxicity in Swiss mouse allografted with mouse S180 cells assessed as effect on heart to body weight ratio at 2 umol/kg, sc administered every day for 12 days measured on fourteenth day; format: organism-based, CCRF S-180; settings: in vivo, 288 h
A2780 = test: Cytotoxicity against human A2780 cells after 48 hrs by MTT assay; format: functional, cell-based; settings: A2780, 48 h
HeLa = test: Cytotoxicity against human HeLa cells after 48 hrs by MTT assay; format: functional, cell-based
Mus musculus [10] = test: Toxicity in Swiss mouse allografted with mouse S180 cells assessed as effect on kidney to body weight ratio at 8 umol/kg, sc administered every day for 12 days measured on fourteenth day; format: organism-based, CCRF S-180; settings: in vivo, 288 h
Mus musculus [11] = test: Toxicity in Swiss mouse allografted with mouse S180 cells assessed as effect on brain to body weight ratio at 8 umol/kg, sc administered every day for 12 days measured on fourteenth day; format: organism-based, CCRF S-180; settings: in vivo, 288 h
Mus musculus [12] = test: Toxicity in Swiss mouse allografted with mouse S180 cells assessed as effect on heart to body weight ratio at 8 umol/kg, sc administered every day for 12 days measured on fourteenth day; format: organism-based, CCRF S-180; settings: in vivo, 288 h
CCRF S-180 [13] = test: Antitumor activity against mouse S180 cells allografted in Swiss mouse assessed as tumour weight at 2 umol/kg, sc administered every day for 12 days measured on fourteenth day (reference value: 1.662 +/- 0.355 g); format: functional
Mus musculus [14] = test: Toxicity in Swiss mouse allografted with mouse S180 cells assessed as spleen weight index at 8 umol/kg, sc administered every day for 12 days measured on fourteenth day; format: organism-based, CCRF S-180; settings: in vivo, 288 h
Mus musculus [15] = test: Toxicity in Swiss mouse allografted with mouse S180 cells assessed as effect on liver to body weight ratio at 8 umol/kg, sc administered every day for 12 days measured on fourteenth day; format: organism-based, CCRF S-180; settings: in vivo, 288 h
Mus musculus [16] = test: Toxicity in Swiss mouse allografted with mouse S180 cells assessed as effect on body weight at 8 umol/kg, sc administered every day for 12 days measured every day during compound administration; format: organism-based, CCRF S-180; settings: in vivo, 288 h
Mus musculus [17] = test: Toxicity in Swiss mouse allografted with mouse S180 cells assessed as effect on spleen to body weight ratio at 8 umol/kg, sc administered every day for 12 days measured on fourteenth day; format: organism-based, CCRF S-180; settings: in vivo, 288 h
Mus musculus [18] = test: Toxicity in Swiss mouse allografted with mouse S180 cells assessed as reduction in spleen weight index at 2 umol/kg, sc administered every day for 12 days measured on fourteenth day; format: organism-based, CCRF S-180; settings: in vivo, 288 h
Mus musculus [19] = test: Toxicity in Swiss mouse allografted with mouse S180 cells assessed as reduction in liver to body weight ratio at 2 umol/kg, sc administered every day for 12 days measured on fourteenth day; format: organism-based, CCRF S-180; settings: in vivo, 288 h

SMILES: O=C(O)c1cc2ccccc2cn1
- Activity (Mus musculus [1]): 33 g
- Activity (CCRF S-180 [2]): 1.104 g
- IC50 [3]: > 100 µM
- Activity (Mus musculus [4]): Non-toxic
- Activity (Mus musculus [5]): Non-toxic
- Activity (Mus musculus [6]): Non-toxic
- IC50 (HepG2): > 100 µM
- IC50 (KB): > 100 µM
- Activity (Mus musculus [7]): Non-toxic
- IC50 (MCF7): > 100 µM
- Activity (Mus musculus [8]): Non-toxic
- Activity (Mus musculus [9]): Non-toxic
- IC50 (A2780): > 100 µM
- IC50 (HeLa): > 100 µM

SMILES: O=C(NCCN(CCNC(=O)c1cc2ccccc2cn1)CCNC(=O)c1cc2ccccc2cn1)c1ccccc1
- Activity (Mus musculus [10]): Non-toxic
- IC50 [3]: 87.4 µM
- Activity (Mus musculus [11]): Non-toxic
- Activity (Mus musculus [12]): Non-toxic
- Activity (CCRF S-180 [13]): 0.952 g
- Activity (Mus musculus [14]): Non-toxic
- Activity (Mus musculus [15]): Non-toxic
- IC50 (HepG2): 38.4 µM
- Activity (Mus musculus [16]): 33 g
- IC50 (KB): 75.2 µM
- Activity (Mus musculus [17]): Non-toxic
- IC50 (MCF7): 25 µM
- IC50 (A2780): 33.6 µM
- IC50 (HeLa): 33.5 µM

SMILES: COc1cccc2c1C(=O)c1c(O)c3c(c(O)c1C2=O)C[C@@](O)(C(=O)CO)C[C@@H]3O[C@H]1C[C@H](N)[C@H](O)[C@H](C)O1 [DOXORUBICIN]
- Activity (Mus musculus [1]): 24 g
- IC50 [3]: 1.36 µM
- Activity (CCRF S-180 [13]): 0.401 g
- IC50 (HepG2): 0.58 µM
- IC50 (KB): 0.13 µM
- Activity (Mus musculus [18]): Toxic
- IC50 (MCF7): 0.16 µM
- IC50 (A2780): 0.27 µM
- IC50 (HeLa): 0.6 µM
- Activity (Mus musculus [19]): Toxic
